Reference: the supplement of paper PMC11451515

Tested on: NOMO1
Assay: cell viability relative to DMSO control; higher = less cytotoxic
Conditions: 48 h
How it was run: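 Viability, reported as a per-plate percentage of DMSO wells with cell-free wells as background, came from CellTiter-Glo One luminescence. Reading took place after 48 h at 37°C. Before that, NOMO1 or SEM (500 cells/well) or P12-Ichikawa (1000 cells/well) leukemia cells, adapted for at least four passages in each medium, were seeded in 1536-well plates (5 μl) and pin-dosed with library compounds in DMSO, 47 μM to 0.79 nM over 11 threefold points.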

[1] = HPLM + 10% dialyzed FBS, 0.000781 µM
[2] = HPLM + 10% dialyzed FBS, 0.00234 µM
[3] = HPLM + 10% dialyzed FBS, 0.00702 µM
[4] = HPLM + 10% dialyzed FBS, 0.0211 µM
[5] = HPLM + 10% dialyzed FBS, 0.0632 µM
[6] = HPLM + 10% dialyzed FBS, 0.19 µM
[7] = HPLM + 10% dialyzed FBS, 0.569 µM
[8] = HPLM + 10% dialyzed FBS, 1.71 µM
[9] = HPLM + 10% dialyzed FBS, 5.12 µM
[10] = HPLM + 10% dialyzed FBS, 15.4 µM
[11] = HPLM + 10% dialyzed FBS, 46.1 µM
[12] = RPMI 5 mM glucose + 10% FBS, 0.000781 µM
[13] = RPMI 5 mM glucose + 10% FBS, 0.00234 µM
[14] = RPMI 5 mM glucose + 10% FBS, 0.00702 µM
[15] = RPMI 5 mM glucose + 10% FBS, 0.0211 µM
[16] = RPMI 5 mM glucose + 10% FBS, 0.0632 µM
[17] = RPMI 5 mM glucose + 10% FBS, 0.19 µM
[18] = RPMI 5 mM glucose + 10% FBS, 0.569 µM
[19] = RPMI 5 mM glucose + 10% FBS, 1.71 µM
[20] = RPMI 5 mM glucose + 10% FBS, 5.12 µM
[21] = RPMI 5 mM glucose + 10% FBS, 15.4 µM
[22] = RPMI 5 mM glucose + 10% FBS, 46.1 µM
[23] = RPMI 5 mM glucose + 10% dialyzed FBS, 0.000781 µM
[24] = RPMI 5 mM glucose + 10% dialyzed FBS, 0.00234 µM
[25] = RPMI 5 mM glucose + 10% dialyzed FBS, 0.00702 µM
[26] = RPMI 5 mM glucose + 10% dialyzed FBS, 0.0211 µM
[27] = RPMI 5 mM glucose + 10% dialyzed FBS, 0.0632 µM
[28] = RPMI 5 mM glucose + 10% dialyzed FBS, 0.19 µM
[29] = RPMI 5 mM glucose + 10% dialyzed FBS, 0.569 µM
[30] = RPMI 5 mM glucose + 10% dialyzed FBS, 1.71 µM
[31] = RPMI 5 mM glucose + 10% dialyzed FBS, 5.12 µM
[32] = RPMI 5 mM glucose + 10% dialyzed FBS, 15.4 µM
[33] = RPMI 5 mM glucose + 10% dialyzed FBS, 46.1 µM

Row | Structure (SMILES) | cell viability [1] | cell viability [2] | cell viability [3] | cell viability [4] | cell viability [5] | cell viability [6] | cell viability [7] | cell viability [8] | cell viability [9] | cell viability [10] | cell viability [11] | cell viability [12] | cell viability [13] | cell viability [14] | cell viability [15] | cell viability [16] | cell viability [17] | cell viability [18] | cell viability [19] | cell viability [20] | cell viability [21] | cell viability [22] | cell viability [23] | cell viability [24] | cell viability [25] | cell viability [26] | cell viability [27] | cell viability [28] | cell viability [29] | cell viability [30] | cell viability [31] | cell viability [32] | cell viability [33]
1 | COC1=C(CC=C(C)C)C2=C(\C=C/C(=O)O2)C=C1 | 101% | 107% | 125% | 110% | 119% | 114% | 117% | 120% | 102% | 113% | 81.8% | 114% | 117% | 120% | 116% | 104% | 123% | 104% | 108% | 108% | 114% | 97.9% | 116% | 116% | 117% | 105% | 108% | 116% | 120% | 113% | 98.7% | 104% | 85.2%
2 | O=C(Nc1cccc2c(=O)cc(-c3nnn[nH]3)oc12)c1ccc(OCCCCc2ccccc2)cc1 | 75.4% | 80.8% | 104% | 107% | 100% | 110% | 94.1% | 102% | 95% | 83.9% | 8.37% | 73.4% | 81.2% | 85.2% | 84.6% | 84.4% | 93.7% | 90.1% | 88.6% | 79% | 81.5% | 10.5% | 82.8% | 95.1% | 91.7% | 97.5% | 94.1% | 88.9% | 94.4% | 83.3% | 80.3% | 73.7% | 22.8%
3 | C=C1C(=O)O[C@@H]2[C@H]3O[C@]3(C)CC/C=C(\C)CC[C@@H]12 | 110% | 117% | 110% | 115% | 117% | 142% | 114% | 93.8% | 15.9% | 14.9% | 3.29% | 115% | 121% | 116% | 113% | 112% | 108% | 106% | 102% | 46.4% | 5.46% | 3.54% | 98.1% | 103% | 104% | 113% | 114% | 124% | 112% | 99.1% | 62.3% | 6.1% | 3.17%
4 | O=C(O)C(=O)Nc1cccc(-c2nnn[nH]2)c1 | 96.8% | 117% | 117% | 119% | 114% | 108% | 130% | 114% | 123% | 106% | 116% | 94.3% | 102% | 109% | 95.8% | 111% | 108% | 97.3% | 106% | 108% | 120% | 99.2% | 109% | 103% | 111% | 99.2% | 112% | 106% | 126% | 104% | 113% | 113% | 120%
5 | O=P1(NCCCl)OCCCN1CCCl (configuration not stated) | 90.5% | 102% | 96.8% | 104% | 97.7% | 84.6% | 119% | 117% | 99.7% | 109% | 76.1% | 82.3% | 88% | 79.4% | 77.2% | 77% | 89.2% | 83.5% | 86.8% | 91.1% | 76.8% | 79.4% | 86.9% | 87.6% | 81.1% | 85.3% | 85.6% | 87.9% | 87.4% | 97.5% | 84.6% | 98.5% | 78.1%
6 | N#C[C@@H]1C[C@@H]2C[C@@H]2N1C(=O)[C@@H](N)C12CC3CC(CC(O)(C3)C1)C2 | 139% | 118% | 124% | 134% | 129% | 129% | 127% | 106% | 96.6% | 32.2% | 5.88% | 120% | 109% | 118% | 124% | 109% | 116% | 111% | 110% | 113% | 112% | 67.3% | 122% | 125% | 106% | 125% | 131% | 123% | 132% | 122% | 118% | 97.9% | 44.6%
7 | c1cc(N[C@@H]2CCNC2)nc(-c2cnc3ccc(-c4cn[nH]c4)cn23)c1 | 133% | 119% | 124% | 137% | 134% | 139% | 127% | 128% | 132% | 102% | 91.9% | 116% | 126% | 124% | 133% | 137% | 125% | 120% | 125% | 128% | 111% | 100% | – | – | – | – | – | – | – | – | – | – | –
8 | N[S+](=O)([O-])c1cc2c(cc1Cl)NCN[S+]2(=O)[O-] | 111% | 97.3% | 105% | 109% | 122% | 111% | 122% | 121% | 103% | 105% | 102% | 108% | 109% | 114% | 109% | 101% | 113% | 119% | 117% | 117% | 112% | 98.8% | 109% | 101% | 112% | 106% | 122% | 136% | 117% | 124% | 111% | 112% | 101%
9 | O=C(O)CCc1ccc(NCc2cccc(Oc3ccccc3)c2)cc1 | 97.4% | 105% | 134% | 132% | 119% | 96.9% | 114% | 111% | 122% | 117% | 141% | 85.8% | 99.2% | 108% | 102% | 119% | 111% | 105% | 102% | 109% | 103% | 123% | 82.6% | 103% | 95.1% | 92.5% | 105% | 105% | 103% | 98.6% | 111% | 119% | 104%
10 | CCN(CC)CCNC(=O)c1ccc2nc(-c3ccccc3)c(-c3ccc(CN4CCC(n5c(=O)[nH]c6ccccc65)CC4)cc3)nc2c1 | 95.1% | 124% | 152% | 134% | 112% | 130% | 107% | 93.6% | 10.6% | 8.39% | 4.57% | – | – | – | – | – | – | – | – | – | – | – | – | – | – | – | – | – | – | – | – | – | –
11 | CNCCN(C)Cc1c[nH]nc1-c1ccc(O[C@H]2C[C@H](OCCC3CCOCC3)C2)cc1 | 115% | 110% | 129% | 150% | 136% | 156% | 133% | 128% | 114% | 103% | 121% | 126% | 123% | 122% | 132% | 149% | 141% | 135% | 131% | 141% | 148% | 132% | 119% | 122% | 140% | 143% | 151% | 130% | 147% | 147% | 144% | 141% | 124%
12 | CC[P](CC)(CC)=[Au][S][C@@H]1O[C@H](COC(C)=O)[C@@H](OC(C)=O)[C@H](OC(C)=O)[C@H]1OC(C)=O | 118% | 121% | 119% | 109% | 120% | 105% | 115% | 55.6% | 9.31% | 3.26% | 2.08% | 99.7% | 115% | 105% | 109% | 116% | 87% | 90.4% | 26.9% | 6.9% | 2.16% | 1.83% | 95% | 125% | 111% | 125% | 102% | 114% | 108% | 48.9% | 11.6% | 3.14% | 1.73%
13 | COc1ccc(CC2SC(=O)NC2=O)cc1C(=O)NCc1ccc(C(F)(F)F)cc1 (configuration not stated) | 84.2% | 83.3% | 90.7% | 86.1% | 79.4% | 85.5% | 99.3% | 99.2% | 83% | 82.1% | 86.3% | 75.9% | 88.2% | 94% | 88% | 81.7% | 84.1% | 90.1% | 92% | 81.4% | 85.3% | 92% | 89.1% | 89.1% | 86.9% | 96% | 89% | 93.4% | 96.7% | 86.3% | 85.9% | 79.3% | 90.8%
14 | COc1cc([C@@H]2c3cc4c(cc3[C@H](O)[C@H]3COC(=O)[C@H]23)OCO4)cc(OC)c1OC | 82.2% | 54.7% | 43.6% | 37.9% | 24.6% | 30.1% | 33.9% | 38.5% | 29.4% | 30.6% | 5.9% | 76.2% | 92.9% | 17.5% | 21.1% | 12.1% | 19.2% | 17.5% | 18.5% | 16.4% | 18.5% | 5.06% | 78.5% | 89.8% | 26.2% | 23.7% | 16.9% | 24.8% | 20.2% | 18.2% | 17.9% | 18.9% | 6.11%
15 | CCC[S+](=O)([O-])Nc1ccc(F)c(C(=O)c2c[nH]c3ncc(-c4ccc(Cl)cc4)cc23)c1F | 124% | 112% | 113% | 116% | 143% | 132% | 108% | 99.7% | 108% | 116% | 93.2% | 101% | 113% | 112% | 103% | 117% | 113% | 106% | 120% | 112% | 111% | 98.9% | 113% | 116% | 112% | 129% | 109% | 112% | 121% | 107% | 108% | 112% | 94.5%
